In ChEMBL document CHEMBL1275461, “Early bactericidal activity and pharmacokinetics of the diarylquinoline TMC207 in treatment of pulmonary tuberculosis” (Antimicrob Agents Chemother, 2008) one finds Activity and MIC data, which are given here for 1 molecule.

Converted amounts (≈) assume the structure as drawn. The source made the active and inactive calls. The rule behind the calls is not given here.

Test [1] has as its system Mycobacterium tuberculosis. In words: Bactericidal activity against Mycobacterium tuberculosis selected on 100 times compound MIC measured after 6 days. In kind it is functional, organism-based.
For test [2], the system named is Mycobacterium tuberculosis. Briefly: Antimicrobial activity against drug-resistant Mycobacterium tuberculosis. The test is classed as functional.
Test [3] concerns Mycobacterium tuberculosis. Briefly: Bactericidal activity against Mycobacterium tuberculosis selected on 10 times compound MIC measured after 6 days. In kind it is functional, organism-based.

`COc1nc2ccc(Br)cc2cc1[C@@H](c1ccccc1)[C@@](O)(CCN(C)C)c1cccc2ccccc12` [BEDAQUILINE]: the result in test [1] and in test [3] was Active. Besides, the MIC in test [2] stood at 0.03 µg/mL (≈ 0.054 µM).
